From patent US20090264379A1, “Stable aqueous solution of a polyene fungicide” (DSM IP ASSETS B.V., priority 2003, published 2009)

Columns and labels:
[1] = Visual solubility of polyene fungicides in water and water + SDS; format: physicochemical; details: soluble if mixture is clear
Procedure: Mixtures are made with several polyene fungicides in several concentrations The used polyene fungicides are nystatin, amphotericin and natamycin. The solubility rate is measured visually of the polyene fungicides in demineralized water as such or according to example 1 in combination with SDS to a final SDS concentration of 1% (w/w). It is soluble if a mixture is clear after one minute stirring at room temperature.

[2] = Rest activity (stability) of completely dissolved natamycin in aqueous SDS solution over time, HPLC; format: physicochemical; details: 1000 ppm natamycin added, 1% SDS
Procedure: This method was used to analyze the amount of
active natamycin in a water-based mixture of several components. The method was HPLC based using the International Dairy Federation (Provisional ADF Standard 140, 1987) with a Lichrosorb RP 8 column. Detection was by UV at 303 nm with a range of 0.1-4 mg/L with an injection volume of 20 μl. Sample preparation was carried out by weighing 2 gram prepared formulation with an accuracy of 1 mgram in a measuring flask. 4 ml demineralized water (demiwater) was added and the mixture was stirred for 15 minutes to get a homogeneous suspension. Subsequently 80 ml ethanol was added and the mixture was stirred for 10 minutes. After ultrasonic treatment the solution was filled up to 100 ml with de-minaralized water and then diluted and/or filtered (0.2 μm) before injecting. The amount of active natamycin was calculated as ppm against a series of standards of known natamycin concentrations.
The mixtures were made by adding 2 gram Delvocid (Natamycin) together with 50 gram 20% SDS solution and eventually additives to a final weight of 1000 gram with demineralised (=demi) water.
This crude mixture was mixed for 5 minutes to obtain a homogeneous mixture and accordingly adjusted to pH 4-6 with ammonia.
The obtained formulations with an added amount of active natamycin of 1000 ppm were stored at 18° C. in a closed pot in the dark.
The prepared mixtures were measured over time for the amount of active natamycin using the analytical method as described hereinabove.
The mixture as described in Example 1 was adjusted to pH=4.0 or pH=6.0 and the natamycin activity was measured over time.
The mixture as described in Example 1 is combined with 1000 ppm di-sodium-EDTA, adjusted to pH 6.0 and the natamycin activity was measured over time.

Row | SMILES | Solublized after 1 minute stirring at room temperature ([1]; 250 ppm polyene fungicide in final mixture, solvent 1% (w/w) SDS) | Solublized after 1 minute stirring at room temperature ([1]; 250 ppm polyene fungicide in final mixture, solvent Demi-Water) | Solublized after 1 minute stirring at room temperature ([1]; 500 ppm polyene fungicide in final mixture, solvent 1% (w/w) SDS) | Solublized after 1 minute stirring at room temperature ([1]; 1000 ppm polyene fungicide in final mixture, solvent 1% (w/w) SDS) | Rest activity of completely dissolved natamycin over time ([2]; pH = 4.0, 3 weeks, stored at 18° C. in the dark) [ppm] | Rest activity of completely dissolved natamycin over time ([2]; pH = 4.0, 9 weeks, stored at 18° C. in the dark) [ppm] | Rest activity of completely dissolved natamycin over time ([2]; pH = 4.0, 1 day, stored at 18° C. in the dark) [ppm] | Rest activity of completely dissolved natamycin over time ([2]; pH = 6.0 + Na2EDTA (1000 ppm di-sodium-EDTA), 3 weeks, 18° C. dark) [ppm] | Rest activity of completely dissolved natamycin over time ([2]; pH = 6.0 + Na2EDTA (1000 ppm di-sodium-EDTA), 9 weeks, 18° C. dark) [ppm] | Rest activity of completely dissolved natamycin over time ([2]; pH = 6.0 + Na2EDTA (1000 ppm di-sodium-EDTA), 1 day, 18° C. dark) [ppm] | Rest activity of completely dissolved natamycin over time ([2]; pH = 6.0, 3 weeks, stored at 18° C. in the dark) [ppm] | Rest activity of completely dissolved natamycin over time ([2]; pH = 6.0, 9 weeks, stored at 18° C. in the dark) [ppm] | Rest activity of completely dissolved natamycin over time ([2]; pH = 6.0, 1 day, stored at 18° C. in the dark) [ppm]
1 | C[C@@H]1[C@H](O)[C@@H](C)/C=C/C=C/CC/C=C/C=C/C=C/C=C/C(O[C@H]2O[C@H](C)[C@@H](O)[C@H](N)[C@@H]2O)CC2O[C@](O)(CC(O)C(O)CCC(O)CC(O)CC(O)CC(=O)O[C@H]1C)CC(O)C2C(=O)O (stereo partly shown) [Nystatin] | Yes | No | Almost | No | – | – | – | – | – | – | – | – | –
2 | C[C@@H]1C/C=C/C=C/C=C/C=C/[C@H](O[C@@H]2O[C@H](C)[C@@H](O)[C@H](N)[C@@H]2O)C[C@@H]2O[C@](O)(C[C@@H](O)C[C@H]3O[C@@H]3/C=C/C(=O)O1)C[C@H](O)[C@H]2C(=O)O [Natamycin, natamycin] | – | – | – | – | <0.1 | <0.1 | 672 | 805 | 560 | 1000 | 444 | 57 | 988
